According to ChEMBL document CHEMBL3588788, “Structure-activity relationship of hybrids of Cinchona alkaloids and bile acids with in vitro antiplasmodial and antitrypanosomal activities” (Eur J Med Chem, 2015):

Legend:
Plasmodium falciparum [1] = assay: Antiplasmodial activity against Plasmodium falciparum 3D7 assessed as reduction in parasite viability by parasite lactate dehydrogenase assay; assay type: functional, organism-based
[2] = test system: Trypanosoma brucei brucei; assay: Antitrypanosomal activity against Trypanosoma brucei brucei Lister 427 bloodstream forms assessed as inhibition of parasite growth at 20 ug/ml by microtiter plate based assay; assay type: functional
[3] = Cytotoxicity against human WI38 cells by MTT assay; assay type: cell-based, WI-38; conditions: Homo sapiens, WI-38; read-out: IC50
Plasmodium falciparum [4] = assay: Antiplasmodial activity against Plasmodium falciparum 3D7 assessed as inhibition of parasite viability at 100 ug/ml by parasite lactate dehydrogenase assay; assay type: functional
[5] = test system: Trypanosoma brucei brucei; assay: Antitrypanosomal activity against Trypanosoma brucei brucei Lister 427 bloodstream forms assessed as inhibition of parasite growth at 100 ug/ml by microtiter plate based assay; assay type: functional
[6] = Cytotoxicity against human WI38 cells assessed as inhibition of cell growth at 20 ug/ml by MTT assay; assay type: cell-based, WI-38
Plasmodium falciparum [7] = assay: Antiplasmodial activity against Plasmodium falciparum 3D7 assessed as inhibition of parasite viability at 20 ug/ml by parasite lactate dehydrogenase assay; assay type: functional
[8] = test system: Trypanosoma brucei brucei; assay: Antitrypanosomal activity against Trypanosoma brucei brucei Lister 427 bloodstream forms by microtiter plate based assay; assay type: functional, organism-based
[9] = Cytotoxicity against human WI38 cells assessed as inhibition of cell growth at 100 ug/ml by MTT assay; assay type: cell-based, WI-38
in vitro = conditions: human, WI38 cells
Description: Selectivity index, ratio of IC50 against human WI38 cells to IC50 for Trypanosoma brucei brucei Lister 427 bloodstream forms

[10] = Selectivity index, ratio of IC50 against human WI38 cells to IC50 for Plasmodium falciparum 3D7; assay type: toxicity, cell-based, WI-38; conditions: read-out: Ratio IC50
Plasmodium falciparum [11] = assay: Potency index, ratio of IC50 for QN to IC50 for test compound against Plasmodium falciparum 3D7 by parasite lactate dehydrogenase assay; assay type: functional
[12] = test system: Trypanosoma brucei brucei; assay: Potency index, ratio of IC50 for QN to IC50 for test compound against Trypanosoma brucei brucei Lister 427 bloodstream forms by microtiter plate based assay; assay type: functional

IC50 [8] | SMILES | IC50 (Plasmodium falciparum [1]) | inhibition at 20 µg/mL [2] | IC50 [3] | inhibition at 100 µg/mL (Plasmodium falciparum [4]) | inhibition at 100 µg/mL [5] | inhibition at 20 ug/ml [6] | inhibition at 20 µg/mL (Plasmodium falciparum [7]) | inhibition at 100 ug/ml [9] | selectivity ratio (in vitro) | selectivity ratio [10] | Ratio IC50 (Plasmodium falciparum [11]) | Ratio IC50 [12]
5.6 µM | CC(=O)O[C@@H]1CC[C@@]2(C)[C@@H](C1)[C@@H](OC(C)=O)[C@@H](OC(C)=O)[C@@H]1[C@@H]2CC[C@]2(C)[C@@H]([C@H](C)CCC(=O)O)CC[C@@H]12 | 8.1 µM | 83% | – | 97% | 100% | 9% | 88% | 96% | – | – | – | –
0.45 µM | C=C[C@H]1CN2CC[C@H]1C[C@H]2[C@H](O)c1cc(CC[C@@H](C)[C@H]2CC[C@H]3[C@@H]4[C@H](OC(C)=O)[C@H](OC(C)=O)[C@@H]5C[C@H](OC(C)=O)CC[C@]5(C)[C@H]4CC[C@]23C)nc2ccc(OC)cc12 | 0.056 µM | – | 3.76 µM | – | – | – | – | – | 8.3 | 67.2 | 11.3 | 46.8
0.48 µM | C=C[C@H]1CN2CC[C@H]1C[C@H]2[C@H](O)c1cc(CC[C@@H](C)[C@H]2CC[C@H]3[C@@H]4[C@H](OC(C)=O)C[C@@H]5C[C@H](OC(C)=O)CC[C@]5(C)[C@H]4C[C@H](OC(C)=O)[C@]23C)nc2ccc(OC)cc12 | 0.0435 µM | – | 4.47 µM | – | – | – | – | – | 9.3 | 103 | 14.6 | 44.1

Second part, the molecule before the results:

SMILES | IC50 [8] | IC50 (Plasmodium falciparum [1]) | inhibition at 20 µg/mL [2] | IC50 [3] | inhibition at 100 µg/mL (Plasmodium falciparum [4]) | inhibition at 100 µg/mL [5] | inhibition at 20 ug/ml [6] | inhibition at 20 µg/mL (Plasmodium falciparum [7]) | inhibition at 100 ug/ml [9] | selectivity ratio (in vitro) | selectivity ratio [10] | Ratio IC50 (Plasmodium falciparum [11]) | Ratio IC50 [12]
CC(=O)O[C@@H]1CC[C@@]2(C)[C@@H](C1)C[C@@H](OC(C)=O)[C@@H]1[C@@H]2CC[C@]2(C)[C@@H]([C@H](C)CCC(=O)O)CC[C@@H]12 | 12.5 µM | 21 µM | 99% | 16.8 µM | 90% | 100% | 57% | 59% | 98% | – | – | – | –
CC(=O)O[C@@H]1CC[C@]2(C)[C@H]3CC[C@]4(C)[C@@H]([C@H](C)CCC(=O)O)CC[C@H]4[C@@H]3C[C@H](OC(C)=O)[C@@H]2C1 | 16.3 µM | 32.7 µM | 81% | – | 97% | 100% | 20% | 73% | 98% | – | – | – | –
C=C[C@H]1CN2CC[C@H]1C[C@H]2[C@H](O)c1cc(CC[C@@H](C)[C@H]2CC[C@H]3[C@@H]4C[C@H](OC(C)=O)[C@@H]5C[C@H](OC(C)=O)CC[C@]5(C)[C@H]4CC[C@]23C)nc2ccc(OC)cc12 | 1.49 µM | 0.46 µM | – | 5.86 µM | – | – | – | – | – | 3.9 | 13 | 1.4 | 14.3
C=C[C@H]1CN2CC[C@H]1C[C@H]2[C@H](O)c1cc(CC[C@@H](C)[C@H]2CC[C@H]3[C@@H]4CC[C@@H]5C[C@H](OC(C)=O)CC[C@]5(C)[C@H]4C[C@H](OC(C)=O)[C@]23C)nc2ccc(OC)cc12 | 1.47 µM | 0.197 µM | – | 4.41 µM | – | – | – | – | – | 3 | 22 | 3.2 | 14.4
C=C[C@H]1CN2CC[C@H]1C[C@H]2[C@H](O)c1cc(CC[C@@H](C)[C@H]2CC[C@H]3[C@@H]4C[C@H](O)[C@@H]5C[C@H](O)CC[C@]5(C)[C@H]4CC[C@]23C)nc2ccc(OC)cc12 | 0.65 µM | 0.224 µM | – | 4.6 µM | – | – | – | – | – | 7 | 21 | 2.8 | 32.4
C=C[C@H]1CN2CC[C@H]1C[C@H]2[C@H](O)c1cc(CC[C@@H](C)[C@H]2CC[C@H]3[C@@H]4[C@H](O)[C@H](O)[C@@H]5C[C@H](O)CC[C@]5(C)[C@H]4CC[C@]23C)nc2ccc(OC)cc12 | 0.76 µM | 0.275 µM | – | 5.55 µM | – | – | – | – | – | 7.3 | 20 | 2.3 | 27.8
